The values that follow come from patent US20090304692A1, “TRIAZINE COMPOUNDS AS PI3 KINASE AND MTOR INHIBITORS” (Wyeth, priority 2008, published 2009).

For test [1], the target named is PI3K-γ (Homo sapiens, UniProt P48736). The test is described as follows: PI3K-gamma fluorescence polarization assay. On the technique in general: Polarisation of emitted light reports the rotation of a fluorescent probe.
The target in test [2] is PI3K-α (Homo sapiens, UniProt P42336). The test is described as follows: PI3K-alpha fluorescence polarization assay.
Test [3] has as its target Human mTOR (FLAG-TOR) (Homo sapiens, UniProt P42345). Put plainly: mTOR kinase assay (DELFIA format, purified enzyme). It is filed as biochemical. The following applies: read-out: IC50 mTOR.

Broadly, the IC50 is the concentration that gives 50% inhibition.

Values joined by “and” are separate entries in the source; they are usually repeats but may differ in a detail not shown here. Equal entries are not always repeated. Where two headings read alike, the source gives them in different places.

PI3K-α, sequence (P42336 whole entry, species assumed): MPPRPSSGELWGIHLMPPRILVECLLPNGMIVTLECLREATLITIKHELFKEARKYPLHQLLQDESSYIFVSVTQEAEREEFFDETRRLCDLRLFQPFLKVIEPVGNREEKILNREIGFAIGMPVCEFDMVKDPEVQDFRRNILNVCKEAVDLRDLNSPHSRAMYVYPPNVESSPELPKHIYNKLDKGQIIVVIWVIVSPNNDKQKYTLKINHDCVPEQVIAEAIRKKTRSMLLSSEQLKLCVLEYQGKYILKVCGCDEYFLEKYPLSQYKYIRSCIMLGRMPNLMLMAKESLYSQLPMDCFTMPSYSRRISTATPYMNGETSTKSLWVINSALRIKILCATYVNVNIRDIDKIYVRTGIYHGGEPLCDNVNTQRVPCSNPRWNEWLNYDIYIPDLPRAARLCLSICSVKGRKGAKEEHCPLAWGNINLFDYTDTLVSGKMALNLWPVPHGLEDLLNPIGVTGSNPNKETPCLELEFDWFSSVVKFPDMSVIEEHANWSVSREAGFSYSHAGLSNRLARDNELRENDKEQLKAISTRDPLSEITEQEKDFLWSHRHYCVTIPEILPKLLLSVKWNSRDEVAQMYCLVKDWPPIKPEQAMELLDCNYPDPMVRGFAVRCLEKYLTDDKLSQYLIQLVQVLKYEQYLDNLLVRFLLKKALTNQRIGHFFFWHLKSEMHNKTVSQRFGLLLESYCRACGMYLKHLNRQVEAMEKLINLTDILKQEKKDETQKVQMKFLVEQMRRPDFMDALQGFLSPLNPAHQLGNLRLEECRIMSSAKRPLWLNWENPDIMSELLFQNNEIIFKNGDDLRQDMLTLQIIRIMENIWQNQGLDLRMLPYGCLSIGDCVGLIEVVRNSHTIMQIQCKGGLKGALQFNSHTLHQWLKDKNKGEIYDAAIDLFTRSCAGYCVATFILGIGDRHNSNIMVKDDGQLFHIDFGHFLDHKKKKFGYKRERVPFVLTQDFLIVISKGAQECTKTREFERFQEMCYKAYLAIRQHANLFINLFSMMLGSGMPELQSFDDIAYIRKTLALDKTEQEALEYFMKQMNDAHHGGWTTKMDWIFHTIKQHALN
PI3K-α, sequence (P27986 whole entry partner, species assumed): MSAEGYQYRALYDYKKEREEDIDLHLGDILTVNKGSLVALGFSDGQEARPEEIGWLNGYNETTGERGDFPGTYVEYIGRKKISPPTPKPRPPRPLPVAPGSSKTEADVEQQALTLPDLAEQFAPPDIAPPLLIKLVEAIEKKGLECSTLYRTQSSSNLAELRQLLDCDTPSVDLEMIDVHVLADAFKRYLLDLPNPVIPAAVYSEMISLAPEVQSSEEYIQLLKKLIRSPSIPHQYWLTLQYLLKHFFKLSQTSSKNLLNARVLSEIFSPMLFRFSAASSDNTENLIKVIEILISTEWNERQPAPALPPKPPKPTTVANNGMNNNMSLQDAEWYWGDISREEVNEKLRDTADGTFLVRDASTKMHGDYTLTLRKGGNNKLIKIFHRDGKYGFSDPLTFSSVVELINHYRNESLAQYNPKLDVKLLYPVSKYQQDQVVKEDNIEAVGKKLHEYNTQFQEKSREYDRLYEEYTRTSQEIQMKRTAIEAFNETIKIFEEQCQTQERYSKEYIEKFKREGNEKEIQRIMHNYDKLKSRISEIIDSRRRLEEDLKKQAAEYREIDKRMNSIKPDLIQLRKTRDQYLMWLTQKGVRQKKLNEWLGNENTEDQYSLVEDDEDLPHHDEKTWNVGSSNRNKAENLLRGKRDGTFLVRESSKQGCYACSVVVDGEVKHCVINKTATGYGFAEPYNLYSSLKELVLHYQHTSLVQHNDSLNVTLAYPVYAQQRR
PI3K-γ, sequence (P48736 whole entry, species assumed): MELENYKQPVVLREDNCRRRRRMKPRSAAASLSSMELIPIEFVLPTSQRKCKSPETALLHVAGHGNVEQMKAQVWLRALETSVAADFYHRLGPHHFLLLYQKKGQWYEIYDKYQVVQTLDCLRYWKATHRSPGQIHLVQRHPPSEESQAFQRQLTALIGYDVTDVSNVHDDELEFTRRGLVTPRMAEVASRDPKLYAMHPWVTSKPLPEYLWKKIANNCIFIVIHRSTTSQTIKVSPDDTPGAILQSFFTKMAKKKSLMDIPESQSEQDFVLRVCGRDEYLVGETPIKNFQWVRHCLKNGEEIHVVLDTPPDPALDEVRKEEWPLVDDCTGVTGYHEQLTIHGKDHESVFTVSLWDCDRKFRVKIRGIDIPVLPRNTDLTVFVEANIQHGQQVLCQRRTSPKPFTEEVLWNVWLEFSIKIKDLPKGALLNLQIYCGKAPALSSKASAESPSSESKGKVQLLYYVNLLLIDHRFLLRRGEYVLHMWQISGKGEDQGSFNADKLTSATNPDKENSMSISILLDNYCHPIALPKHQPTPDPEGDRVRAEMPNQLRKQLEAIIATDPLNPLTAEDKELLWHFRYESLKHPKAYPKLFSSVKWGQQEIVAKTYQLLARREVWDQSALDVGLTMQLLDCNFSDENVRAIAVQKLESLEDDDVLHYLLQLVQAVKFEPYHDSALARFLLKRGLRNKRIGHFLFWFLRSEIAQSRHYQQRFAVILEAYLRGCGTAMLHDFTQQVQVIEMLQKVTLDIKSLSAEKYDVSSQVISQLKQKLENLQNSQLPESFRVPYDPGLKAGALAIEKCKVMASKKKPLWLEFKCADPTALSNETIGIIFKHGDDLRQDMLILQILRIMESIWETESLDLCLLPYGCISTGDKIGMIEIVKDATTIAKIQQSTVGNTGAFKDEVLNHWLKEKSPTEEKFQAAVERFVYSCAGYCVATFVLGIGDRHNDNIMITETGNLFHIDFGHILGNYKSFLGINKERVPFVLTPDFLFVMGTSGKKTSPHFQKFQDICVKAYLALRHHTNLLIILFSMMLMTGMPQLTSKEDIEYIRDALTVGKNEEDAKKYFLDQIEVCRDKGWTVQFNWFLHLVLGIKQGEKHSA
Human mTOR (FLAG-TOR), sequence (P42345 1360-2549 limits assumed): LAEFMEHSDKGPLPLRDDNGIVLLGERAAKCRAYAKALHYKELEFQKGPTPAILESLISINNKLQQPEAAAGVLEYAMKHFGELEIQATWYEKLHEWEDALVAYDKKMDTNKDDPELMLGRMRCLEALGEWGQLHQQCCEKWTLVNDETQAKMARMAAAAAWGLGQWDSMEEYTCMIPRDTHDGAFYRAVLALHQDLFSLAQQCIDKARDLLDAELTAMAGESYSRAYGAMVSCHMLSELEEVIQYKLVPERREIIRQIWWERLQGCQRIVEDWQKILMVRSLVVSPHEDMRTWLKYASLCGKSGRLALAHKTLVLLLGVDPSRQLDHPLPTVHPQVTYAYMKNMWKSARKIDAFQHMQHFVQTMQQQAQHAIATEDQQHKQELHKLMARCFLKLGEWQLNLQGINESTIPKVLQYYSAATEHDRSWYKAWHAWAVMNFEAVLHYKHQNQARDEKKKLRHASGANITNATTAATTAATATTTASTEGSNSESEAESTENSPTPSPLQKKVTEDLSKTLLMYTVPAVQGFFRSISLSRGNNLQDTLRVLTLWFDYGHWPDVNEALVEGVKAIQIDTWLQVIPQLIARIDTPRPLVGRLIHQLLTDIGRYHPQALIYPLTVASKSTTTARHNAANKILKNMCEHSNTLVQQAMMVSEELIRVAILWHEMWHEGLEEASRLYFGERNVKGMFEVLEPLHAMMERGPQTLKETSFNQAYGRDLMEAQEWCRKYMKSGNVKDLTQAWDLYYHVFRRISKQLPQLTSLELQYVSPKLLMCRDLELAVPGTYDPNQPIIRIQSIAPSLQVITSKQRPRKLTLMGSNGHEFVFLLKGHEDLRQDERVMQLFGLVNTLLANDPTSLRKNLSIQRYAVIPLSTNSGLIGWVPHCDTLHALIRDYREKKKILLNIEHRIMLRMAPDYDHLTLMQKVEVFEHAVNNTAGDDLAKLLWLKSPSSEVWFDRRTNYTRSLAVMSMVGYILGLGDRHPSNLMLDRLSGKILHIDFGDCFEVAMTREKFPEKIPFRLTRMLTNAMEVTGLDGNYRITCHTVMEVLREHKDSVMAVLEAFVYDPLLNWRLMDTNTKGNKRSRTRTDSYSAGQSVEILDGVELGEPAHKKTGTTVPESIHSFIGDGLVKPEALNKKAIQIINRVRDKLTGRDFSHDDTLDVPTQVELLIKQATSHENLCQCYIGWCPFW

For the molecule “1-(3-{[4-(dimethylamino)piperidin-1-yl]carbonyl}phenyl)-3-{4-[4-(4-methylphenyl)-6-morpholin-4-yl-1,3,5-triazin-2-yl]phenyl}urea [Example 579]”, the IC50 in test [1] (read-out: IC50 PI3Kγ) worked out at 658 nM; in test [2] (read-out: IC50 PI3Kα) it was 462 nM; in test [3], 120 nM.

“1-(4-(4-(3-oxa-8-azabicyclo[3.2.1]octan-8-yl)-6-(piperidin-4-ylamino)-1,3,5-triazin-2-yl)phenyl)-3-ethylurea [Example 363]”: the half-maximal inhibitory concentration (IC50) was 7140 nM in test [1] (read-out: IC50 PI3Kγ), 1100 nM in test [2] (read-out: IC50 PI3Kα) and 0.77 nM in test [3].

Consider `COc1ccc(NC(=O)Nc2ccc(-c3nc(N4CCOCC4)nc(N4CCOCC4)n3)cc2)c(OC)c1` [Example 7, 1-(2,4-dimethoxyphenyl)-3-[4-(4,6-dimorpholin-4-yl-1,3,5-triazin-2-yl)phenyl]-urea], for which the IC50 was greater than 10000 nM in test [2] and greater than 4000 nM in test [3].

As for `CCNC(=O)Nc1ccc(-c2nc(N3CCOCC3)nc(N3CCOCC3)n2)cc1` [Example 12, 1-[4-(4,6-dimorpholin-4-yl-1,3,5-triazin-2-yl)phenyl]-3-ethylurea], the values for the IC50 in test [1] (read-out: IC50 PI3Kγ), in test [2] (read-out: IC50 PI3Kα) and in test [3] were 815 nM, 248 nM and 11 nM, respectively.

With `Cc1ccc(NC(=O)Nc2ccc(-c3nc(NC4CN(C(=O)OC(C)(C)C)C4)nc(N4CCOCC4)n3)cc2)cc1` [Example 16, tert-butyl 3-{[4-(4-{[(4-methylphenyl)carbamoyl]amino}phenyl)-6-morpholin-4-yl-1,3,5-triazin-2-yl]amino}azetidine-1-carboxylate], the figures for the concentration for half-maximal inhibition (IC50) in test [2] and in test [3] were greater than 10000 nM and 12 nM, respectively.

As for `Nc1ccc(-c2nc(N3CCOCC3)nc(N3C4CCC3COC4)n2)cc1` [Example 33, 4-[4-morpholin-4-yl-6-(3-oxa-8-azabicyclo[3.2.1]oct-8-yl)-1,3,5-triazin-2-yl]aniline], the concentration for half-maximal inhibition (IC50) in test [1] is greater than 10000 nM; in test [2] (read-out: IC50 PI3Kα) it was 2550 nM; in test [3], 91 nM.

Turning to `CC(C)NC(=O)Nc1ccc(-c2nc(N3CCOCC3)nc(N3C4CCC3COC4)n2)cc1` [Example 44, 1-isopropyl-3-{4-[4-morpholin-4-yl-6-(3-oxa-8-azabicyclo[3.2.1]oct-8-yl)-1,3,5-triazin-2-yl]phenyl}urea], the half-inhibitory concentration (IC50) in test [1] (read-out: IC50 PI3Kγ) amounted to 9500 nM; in test [2] (read-out: IC50 PI3Kα), 1580 nM; in test [3], 13.5 nM.

Take `O=C(NCCO)Nc1ccc(-c2nc(N3CCOCC3)nc(N3C4CCC3COC4)n2)cc1` [Example 45, 1-(2-hydroxyethyl)-3-{4-[4-morpholin-4-yl-6-(3-oxa-8-azabicyclo[3.2.1]oct-8-yl)-1,3,5-triazin-2-yl]phenyl}urea]: the half-maximal inhibitory concentration (IC50) was found to be 2080 nM in test [1] (read-out: IC50 PI3Kγ), 504 nM in test [2] (read-out: IC50 PI3Kα) and 3.6 nM in test [3].

In the case of `CN(C)CCNC(=O)Nc1ccc(-c2nc(N3CCOCC3)nc(N3CCC4(CC3)OCCO4)n2)cc1` [Example 46, 1-[2-(dimethylamino)ethyl]-3-{4-[4-(1,4-dioxa-8-azaspiro[4.5]dec-8-yl)-6-morpholin-4-yl-1,3,5-triazin-2-yl]phenyl}urea], the IC50 is 4920 nM in test [1] (read-out: IC50 PI3Kγ, listed as 136); 4920 nM in test [1] (read-out: IC50 PI3Kγ, listed as 711); 208 nM in test [2] (read-out: IC50 PI3Kα, listed as 136); 208 nM in test [2] (read-out: IC50 PI3Kα, listed as 711); 24 nM and 20 nM in test [3].

As to `O=C(Nc1ccc(-c2nc(N3CCOCC3)nc(N3CCOCC3)n2)cc1)Nc1ccc(C(F)(F)F)cn1` [Example 55, 1-[4-(4,6-dimorpholin-4-yl-1,3,5-triazin-2-yl)phenyl]-3-[5-(trifluoromethyl)pyridin-2-yl]urea], the results for the IC50 in test [1] (read-out: IC50 PI3Kγ), in test [2] (read-out: IC50 PI3Kα) and in test [3] were 1580 nM, 205 nM and 50 nM, respectively.

Regarding `O=C(Nc1ccc(-c2nc(N3CCOCC3)nc(N3CCOCC3)n2)cc1)Nc1ccc(C(O)(C(F)(F)F)C(F)(F)F)cc1` [Example 56, 1-[4-(4,6-dimorpholin-4-yl-1,3,5-triazin-2-yl)phenyl]-3-{4-[2,2,2-trifluoro-1-hydroxy-1-(trifluoromethyl)ethyl]phenyl}urea], in test [3], the IC50 is 15 nM and 10 nM.

`CNCCNC(=O)Nc1ccc(-c2nc(OC3CCOCC3)nc(N3CCOCC3)n2)cc1` [Example 64, 1-[2-(methylamino)ethyl]-3-{4-[4-morpholin-4-yl-6-(tetrahydro-2H-pyran-4-yloxy)-1,3,5-triazin-2-yl]phenyl}urea]: the half-maximal inhibitory concentration (IC50) in test [1] (read-out: IC50 PI3Kγ) worked out at 1190 nM; in test [2] (read-out: IC50 PI3Kα), 1460 nM; in test [3], 1500 nM.

`CN1CCC(NC(=O)Nc2ccc(-c3nc(N4CCOCC4)nc(N4CCOCC4)n3)cc2)CC1` [Example 98, 1-[4-(4,6-dimorpholin-4-yl-1,3,5-triazin-2-yl)phenyl]-3-(1-methylpiperidin-4-yl)urea]: the 50% inhibitory concentration (IC50) in test [1] (read-out: IC50 PI3Kγ) worked out at 9000 nM; in test [2] (read-out: IC50 PI3Kα), 1350 nM; in test [3], 2100 nM.

`C[C@H]1COCCN1c1nc(-c2ccc(NC(=O)NC3CCN(C)CC3)cc2)nc(N2CCOCC2)n1` [Example 99, 1-(4-{4-[(3S)-3-methylmorpholin-4-yl]-6-morpholin-4-yl-1,3,5-triazin-2-yl}phenyl)-3-(1-methylpiperidin-4-yl)urea]: the IC50 in test [1] (read-out: IC50 PI3Kγ) was determined as 7500 nM; in test [2] (read-out: IC50 PI3Kα), 1520 nM; in test [3], 460 nM.

In the case of `Nc1ccc(-c2nc(N3CCOCC3)nc(N3CCC4(CC3)OCCO4)n2)cc1` [Example 129, 4-[4-(1,4-dioxa-8-azaspiro[4.5]dec-8-yl)-6-morpholin-4-yl-1,3,5-triazin-2-yl]aniline], the values for the IC50 in test [1], in test [2] (read-out: IC50 PI3Kα) and in test [3] were greater than 10000 nM, 7220 nM and 2350 nM, respectively.

Take `COC(=O)c1ccc(NC(=O)Nc2ccc(-c3nc(C)nc(N4CCOCC4)n3)cc2)cc1` [Example 162, methyl 4-({[4-(4-methyl-6-morpholin-4-yl-1,3,5-triazin-2-yl)phenyl]carbamoyl}amino)benzoate]: the values for the 50% inhibitory concentration (IC50) in test [1] (read-out: IC50 PI3Kγ), in test [2] (read-out: IC50 PI3Kα) and in test [3] were 495 nM, 10 nM and 23 nM, respectively.

Regarding `CN(C)CCN1CCN(C(=O)c2ccc(NC(=O)Nc3ccc(-c4nc(N5CCOCC5)nc(N5CCOCC5)n4)cc3)cc2)CC1` [Example 168, 1-[4-({4-[2-(dimethylamino)ethyl]piperazin-1-yl}carbonyl)phenyl]-3-[4-(4,6-dimorpholin-4-yl-1,3,5-triazin-2-yl)phenyl]urea], the values for the 50% inhibitory concentration (IC50) in test [1] (read-out: IC50 PI3Kγ), in test [2] (read-out: IC50 PI3Kα) and in test [3] were 3 nM, 1 nM and 3.6 nM, respectively.

Regarding `CCCCc1nc(-c2ccc(NC(=O)Nc3ccc(C(=O)OC)cc3)cc2)nc(N2CCOCC2)n1` [Example 188, methyl 4-({[4-(4-butyl-6-morpholin-4-yl-1,3,5-triazin-2-yl)phenyl]carbamoyl}amino)benzoate], the half-maximal inhibitory concentration (IC50) in test [1] (read-out: IC50 PI3Kγ) stood at 2380 nM; in test [2] (read-out: IC50 PI3Kα), 7540 nM; in test [3], 11 nM.

With `CCc1nc(-c2ccc(NC(=O)Nc3ccc(C(=O)OC)cc3)cc2)nc(N2CCOCC2)n1` [Example 225, methyl 4-({[4-(4-ethyl-6-morpholin-4-yl-1,3,5-triazin-2-yl)phenyl]carbamoyl}amino)benzoate], the IC50 is 388 nM in test [1] (read-out: IC50 PI3Kγ), 109 nM in test [2] (read-out: IC50 PI3Kα) and 47 nM in test [3].

For the molecule `COC(=O)c1ccc(NC(=O)Nc2ccc(-c3nc(C4=CCOCC4)nc(N4CCOCC4)n3)cc2)cc1` [Example 226, methyl 4-[({4-[4-(3,6-dihydro-2H-pyran-4-yl)-6-morpholin-4-yl-1,3,5-triazin-2-yl]phenyl}carbamoyl)amino]benzoate], the IC50 in test [1] (read-out: IC50 PI3Kγ) worked out at 294 nM; in test [2] (read-out: IC50 PI3Kα), 75 nM; in test [3] it was 62 nM.

For the molecule `CNC(=O)Nc1ccc(-c2nc(-c3ccc(NC(=O)Nc4ccc(C(N)=O)cc4)cc3)nc(N3CCOCC3)n2)cc1` [Example 462, 4-({[4-(4-{4-[(methylcarbamoyl)amino]phenyl}-6-morpholin-4-yl-1,3,5-triazin-2-yl)phenyl]carbamoyl}amino) benzamide], the half-inhibitory concentration (IC50) in test [3] was less than 1 nM.

As to `CN(C)[C@@H]1CCN(C(=O)c2ccc(NC(=O)Nc3ccc(-c4nc(N5CCOCC5)nc(N5CCOCC5)n4)cc3)cc2)C1` [Example 484, 1-(4-{[(3R)-3-(dimethylamino)pyrrolidin-1-yl]carbonyl}phenyl)-3-[4-(4,6-dimorpholin-4-yl-1,3,5-triazin-2-yl)phenyl]urea], the IC50 in test [2] (read-out: IC50 PI3Kα) turned out to be 1 nM; in test [3], 0.63 nM.

For `CN(C)[C@H]1CCN(C(=O)c2ccc(NC(=O)Nc3ccc(-c4nc(N5CCOCC5)nc(N5CCOCC5)n4)cc3)cc2)C1` [Example 485, 1-(4-{[(3S)-3-(dimethylamino)pyrrolidin-1-yl]carbonyl}phenyl)-3-[4-(4,6-dimorpholin-4-yl-1,3,5-triazin-2-yl)phenyl]urea], the IC50 came to 1.4 nM in test [2] (read-out: IC50 PI3Kα) and 1.25 nM in test [3].

As to `CC(C)N1CCN(C(=O)c2ccc(NC(=O)Nc3ccc(-c4nc(C5CCOCC5)nc(N5CCOCC5)n4)cc3)cc2)CC1` [Example 523, 1-(4-{[4-(1-methylethyl)piperazin-1-yl]carbonyl}phenyl)-3-{4-[4-morpholin-4-yl-6-(tetrahydro-2H-pyran-4-yl)-1,3,5-triazin-2-yl]phenyl}urea], the IC50 in test [3] is 0.43 nM.

As for `O=C(Nc1ccncc1)Nc1ccc(-c2nc(NS(=O)(=O)c3ccccc3)nc(N3CCOCC3)n2)cc1` [Example 781, N-(4-morpholin-4-yl-6-{4-[(pyridin-4-ylcarbamoyl)amino]phenyl}-1,3,5-triazin-2-yl)benzenesulfonamide], the values for the 50% inhibitory concentration (IC50) in test [1] (read-out: IC50 PI3Kγ) and in test [2] (read-out: IC50 PI3Kα) were 374 nM and 136 nM, respectively.

On to `C[C@H]1COCCN1c1nc(-c2ccc(NC(=O)Nc3ccc(C(=O)N4CCNCC4)cc3)cc2)nc(N2C3CCC2COC3)n1` [Example 838, 1-(4-{4-[(3S)-3-methylmorpholin-4-yl]-6-(3-oxa-8-azabicyclo[3.2.1]oct-8-yl)-1,3,5-triazin-2-yl}phenyl)-3-[4-(piperazin-1-ylcarbonyl)phenyl]urea], for which the half-maximal inhibitory concentration (IC50) in test [1] (read-out: IC50 PI3Kγ) was determined as 69.5 nM; in test [2] (read-out: IC50 PI3Kα), 4 nM.
